Test results as given in patent publication EP0643060A2, “Sulfonylbenzyl-substituted benzimidazoles, process for their preparation, and their pharmaceutical use” (BAYER AG, priority 1993, dated 1995).
Where two headings read alike, the source gives them in different places.

Experiments:
[1] = system: isolierten Aortenringen von Kaninchen; assay: Inhibition of angiotensin II-induced contraction of isolated rabbit aortic rings; type: cell-based; conditions: isolated rabbit aortic rings in vitro; effect at 3rd (submaximal) agonist concentration; read-out: IC50 gegen Kontraktionen, induziert durch AII
Procedure: Kaninchen beiderlei Geschlechts werden durch Nackenschlag betäubt und entblutet, oder fallweise mit Nembutal (ca. 60 - 80 mg/kg i.v.) narkotisiert und durch Öffnung des Thorax getötet. Die Thoraxaorta wird entnommen, von anhaftendem Bindegewebe befreit, in 1,5 mm breite Ringsegmente geteilt und einzeln unter einer Anfangsbelastung von ca. 3,5 g in 10 ml Organbäder mit auf 37°C temperierter, Carbogen-begaster Krebs-Henseleit-Nährlösung folgender Zusammensetzung: 119 mmol/l NaCl; 2,5 mmol/l CaCl₂ x 2 H₂O; 1,2 mmol/l KH₂PO₄; 10 mmol/l Glucose; 4,8 mmol/l KCl; 1,4 mmol/l MgSO₄ x 7 H₂O und 25 mmol/l NaHCO₃ verbracht.
Die Kontraktionen werden isometrisch durch Statham UC2-Zellen über Brückenverstärker (ifd Mülheim bzw. DSM Aalen) erfaßt und mittels A/D-Wandler (System 570, Keithley München) digitalisiert sowie ausgewertet. Die Durchführung von Agonistdosiswirkungskurven (DWK) erfolgt stündlich. Mit jeder DWK werden 3 bzw. 4 Einzelkonzentrationen im 4 min-Abstand in die Bäder appliziert. Nach Ende der DWK und darauffolgender Auswaschzyklen (16 mal jeweils ca. 5 sec/min mit der o.a. Nährlösung) schließt sich eine 28-minütige Ruhe- bzw. Inkubationsphase an, innerhalb derer die Kontraktionen in der Regel wieder den Ausgangswert erreichen.
Die Höhe der im Normalfall 3. […]

Angiotensin II-Rezeptor = target: T1, Angiotensin II-Rezeptor (Bos taurus, UniProt P25104); assay: Angiotensin II receptor binding on membrane fractions of bovine adrenal cortex (3H-angiotensin II); set-up: species or system Rind; conditions: bovine adrenal cortex membranes, 3H-Angiotensin II 3-5 nM, 60 min, room temperature
T1 construct: an partiell gereinigten Membranfraktionen boviner NNR mit radioaktivem Angiotensin II; from tissue; host or cells: bovine adrenal cortex, partially purified membrane fractions
T1 sequence (P25104 1-359): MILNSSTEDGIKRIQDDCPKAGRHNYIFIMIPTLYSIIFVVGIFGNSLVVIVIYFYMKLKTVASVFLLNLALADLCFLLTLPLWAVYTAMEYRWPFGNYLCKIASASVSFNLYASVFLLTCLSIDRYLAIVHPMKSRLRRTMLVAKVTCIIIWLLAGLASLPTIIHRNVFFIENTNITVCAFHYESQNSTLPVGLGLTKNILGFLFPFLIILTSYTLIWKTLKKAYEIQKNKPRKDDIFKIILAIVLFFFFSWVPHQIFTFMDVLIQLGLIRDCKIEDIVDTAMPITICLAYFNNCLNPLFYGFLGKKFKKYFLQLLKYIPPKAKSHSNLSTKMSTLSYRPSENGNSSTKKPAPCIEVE
Procedure: Nebennierenrinden vom Rind (NNR), die frisch entnommen und sorgfältig von Mark von Kapsel befreit sind, werden in Sucrose-Lösung (0,32 M) mit Hilfe eines Ultra-Turrax (Janke & Kunkel, Staufen i.B.) zu grobem Membran-Homogenat zerkleinert und in zwei Zentrifugationsschritten zu Membranfraktionen partiell aufgereinigt. Die Untersuchungen zur Rezeptor-Bindung werden an partiell gereinigten Membranfraktionen boviner NNR mit radioaktivem Angiotensin II in einem Assay-Volumen von 0,25 ml durchgeführt, das im einzelnen die partiell gereinigten Membranen (50 - 80 µg), ³H-Angiotensin II (3-5 nM), Test-Pufferlösung (50 mM Tris, pH 7,2, 5 mM MgCl₂ sowie die zu untersuchenden Substanzen enthält. Nach einer Inkubationszeit von 60 min bei Raumtemperatur wird die nicht gebundene Radioaktivität der Proben mittels angefeuchteter Glasfaserfilter (Whatman GF/C) separiert und die gebundene Radioaktivität nach Waschung des Proteins mit eiskalter Pufferlösung (50 mM Tris/HCl, pH 7,4, 5% PEG 6000) in einem Szintillationscocktail […] gemessen. Die Analyse der Rohdaten erfolgte mit Computer-Programmen zu Ki- bzw. IC₅₀-Werten (Ki: für die verwendete Radioaktivität korrigierte IC₅₀-Werte; IC₅₀-Werte: Konzentration bei der die zu untersuchende Substanz eine 50%ige Hemmung der spezifischen Bindung des Radioliganden bewirkt).

| SMILES | Ki (Angiotensin II-Rezeptor) [nM] | other results |
| --- | --- | --- |
| CCCCc1nc2cccc(C(=O)OC)c2n1Cc1ccc(S(=O)(=O)N2CCCC2C(=O)O)cc1Cl (stereo in doubt) [Beispiel 2, (S)-2-Butyl-1-[3-chlor-1-(N-2'-carboxy-pyrrolidinyl)-sulfonyl]-7-methoxycarbonyl-benz[d]imidazol] | – | IC50 [1]: 46 nM |
| CCCCc1nc2cccc(C(=O)O)c2n1Cc1ccc(S(=O)(=O)N2CCC[C@H]2C(=O)O)cc1Cl [Beispiel 3, (S)-2-Butyl-7-carboxy-1-[3-chlor-1-(N-2-carboxy-pyrrolidinyl)-sulfonyl]-benz[d]imidazol] | 48 | – |
| CCCCc1nc2cccc(C(=O)OC)c2n1Cc1ccc(S(=O)(=O)N2CCC[C@H]2C(=O)OC(C)(C)C)cc1F [Beispiel 4] | – | Ki (Angiotensin II-Rezeptor; read-out: Ki): 735 nM |
| CCCCc1nc2cccc(C(=O)O)c2n1Cc1ccc(S(=O)(=O)N2CCC[C@H]2C(=O)O)cc1Cl [Beispiel 7, (S)-2-Butyl-7-carboxy-1-[3-chlor-1-(N-2-carboxypyrrolidinyl)-sulfonyl]benz[d]imidazol Bis Kaliumsalz] | 260 | – |
